For assay [1], the system named is Klebsiella pneumoniae expressing KPC-1 (CL6569). The assay is described as follows: Antibiotic activity: growth inhibitory concentration (OD600), Klebsiella pneumoniae CL6569. The class given is cell-based. To be noted: lowest concentration inhibiting 95% of bacterial growth; in the presence of β lactamase inhibitor Relebactam 4 μg/mL; 35±2° C. for 22 hours; tested range 100 μM to 0.098 μM. The gist of the method:
(§1)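 Clinical strains at ~2×10^5 CFU/mL in cation-adjusted Mueller-Hinton II broth, with relebactam at 4 μg/mL final; compounds 100 μM to 0.098 μM final. After 22 hours at 35±2° C, OD600 read; MITC95 is lowest concentration giving 95% growth inhibition.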

For assay [2], the system named is Pseudomonas aeruginosa expressing AmpC (CL5701). The assay is described as follows: Antibiotic activity: growth inhibitory concentration (OD600), Pseudomonas aeruginosa CL5701. To be noted: lowest concentration inhibiting 95% of bacterial growth; in the presence of β lactamase inhibitor Relebactam 4 μg/mL; 35±2° C. for 22 hours; tested range 100 μM to 0.098 μM. The class given is cell-based. In short, it runs like this: as §1

Where a name gives a salt, the structure may show the parent alone.

On to `C[n+]1cc(-c2ccc(OC[C@H](O/N=C(\C(=O)N[C@@H]3C(=O)N(OS(=O)(=O)[O-])C3(C)C)c3csc(N)n3)C(=O)O)cc2)ccc1CNCCN` [Example 78, (S)-3-((Z)-2-(((S)-2-(4-(6-(((2-aminoethyl)amino)methyl)-1-methylpyridin-1-ium-3-yl)phenoxy)-1-carboxyethoxy)imino)-2-(2-aminothiazol-4-yl)acetamido)-2,2-dimethyl-4-oxoazetidin-1-yl sulfate], for which the “KP_CL6569 MITC95” value in assay [1] was 0.7813 µM. Moreover, the “PA_CL5701 MITC95” value in assay [2] was 12.5 µM.
The like results for `C[n+]1cc(-c2ccc(OC[C@H](O/N=C(\C(=O)N[C@@H]3C(=O)N(OS(=O)(=O)[O-])C3(C)C)c3nc(N)sc3Cl)C(=O)O)cc2F)ccc1NCCN` [Example 69, (S)-3-((Z)-2-(2-amino-5-chlorothiazol-4-yl)-2-(((S)-2-(4-(6-((2-aminoethyl)amino)-1-methylpyridin-1-ium-3-yl)-3-fluorophenoxy)-1-carboxyethoxy)imino)acetamido)-2,2-dimethyl-4-oxoazetidin-1-yl sulfate] were, in that order, 0.3906 µM and 3.125 µM.
The like results for `CC1(C)[C@H](NC(=O)/C(=N\O[C@@H](COc2ccc(-c3cn(CCCN)nc3N)cc2)C(=O)O)c2csc(N)n2)C(=O)N1OS(=O)(=O)O` [Example 27, (S)-3-(4-(3-amino-1-(3-aminopropyl)-1H-pyrazol-4-yl)phenoxy)-2-((((Z)-1-(2-aminothiazol-4-yl)-2-(((S)-2,2-dimethyl-4-oxo-1-(sulfooxy)azetidin-3-yl)amino)-2-oxoethylidene)amino)oxy)propanoic acid] were, in that order, 0.7813 µM and 6.25 µM.
The like results for `Cc1cn(CCCN)[n+](C)c1-c1ccc(OC[C@H](O/N=C(\C(=O)N[C@@H]2C(=O)N(OS(=O)(=O)O)C2(C)C)c2csc(N)n2)C(=O)O)cc1.O=C([O-])C(F)(F)F` [Example 19, 1-(3-aminopropyl)-3-(4-((S)-2-((((Z)-1-(2-aminothiazol-4-yl)-2-(((S)-2,2-dimethyl-4-oxo-1-(sulfooxy)azetidin-3-yl)amino)-2-oxo-ethylidene)amino)oxy)-2-carboxyethoxy)phenyl)-2,4-dimethyl-1H-pyrazol-2-ium 2,2,2-trifluoroacetate] were, in that order, 0.7813 µM and 12.5 µM.
For `C[n+]1cc(-c2ccc(OC[C@H](O/N=C(\C(=O)N[C@@H]3C(=O)N(OS(=O)(=O)O)C3(C)C)c3csc(N)n3)C(=O)O)cc2)cn1CC(O)CN` (stereo partly drawn) [Example 42, (3S)-3-((Z)-2-(((1S)-2-(4-(1-(3-amino-2-hydroxypropyl)-2-methyl-1H-pyrazol-2-ium-4-yl)phenoxy)-1-carboxyethoxy)imino)-2-(2-aminothiazol-4-yl)acetamido)-2,2-dimethyl-4-oxoazetidin-1-yl sulfate], the “KP_CL6569 MITC95” value in assay [1] turned out to be 0.3906 µM. The “PA_CL5701 MITC95” value in assay [2] was found to be 3.125 µM.
The like results for `C[n+]1cc(-c2ccc(OC[C@H](O/N=C(\C(=O)N[C@@H]3C(=O)N(OS(=O)(=O)O)C3(C)C)c3csc(N)n3)C(=O)O)cc2F)cn1CC(N)CN` (single isomer, unassigned) [Example 46] were, in that order, 0.3906 µM and 6.25 µM.
The like results for `CC1[C@H](NC(=O)/C(=N\O[C@@H](COc2ccc(-c3cnn(CCCN)c3)cc2)C(=O)O)c2csc(N)n2)C(=O)N1S(=O)(=O)O` (stereo in doubt) [Example 8, (S)-3-(4-(1-(3-aminopropyl)-1H-pyrazol-4-yl)phenoxy)-2-((((Z)-1-(2-aminothiazol-4-yl)-2-(((2R,3S)-2-methyl-4-oxo-1-sulfoazetidin-3-yl)amino)-2-oxoethylidene)amino)oxy)propanoic acid] were, in that order, 3.125 µM and 25 µM.

These data come from patent US11230543B2, “Biaryl monobactam compounds and methods of use thereof for the treatment of bacterial infections” (priority 2015, dated 2022).
